Columns and labels:
[1] = test system: MET downstream signalling (Erk 1/2, Akt) in Vero cells; assay: MET, Erk1/2 and Akt phosphorylation assay in NK1-stimulated Vero cells (Western blot); format: cell-based; conditions: Vero cells stimulated with NK1; compound 1 mM (lane 5), 0.1% DMSO
Description: We evaluated the effect of piperazine-like compounds and MB605 on Vero cells by assessing MET, Erk 1/2 and Akt phosphorylation in response to stimulation using […] NK1. MB605 was dissolved in DMSO, which limited the range of concentrations tested to ≤1 mM in order to avoid solvent effects on cell function/viability. The water-soluble piperazine-like compounds, in contrast, could be tested at concentrations up to 100 mM.
Fig. 6 Biological activity of the piperazine-like compounds and MB605. (a–e) Vero cells expressing the receptor endogenously on their cell surface were stimulated with HGF/SF or NK1 and phosphorylation of MET and downstream targets Akt and Erk1/2 was analysed. Piperazine-like compounds HEPES (a), (H)EPPS (b), MES (c), MOPS (d) and CAPS (e) were tested at 100 mM (lanes 4), 10 mM (lanes 5), 1 mM (lanes 6) and 100 μM (lanes 7) concentration in the presence of 1 nM NK1. To control for activating or inhibiting effects of the compounds independently of MET, piperazine-like compounds were tested on cells at 100 mM without stimulation by NK1 (lanes 3). Biological activity of MB605 (f) was investigated at 1 mM (lane 5), 100 μM (lane 6) and 10 μM (lane 7) in the presence of a constant concentration of DMSO (0.1%). A solvent control (0.1% DMSO, lane 3) was included in order to account for the effect of DMSO on the cells. A positive control (1 nM NK1 in the presence of 0.1% DMSO) is shown in lane 4. In all experiments, un-stimulated cells served as negative control (lanes 1) while cells stimulated with 1 nM NK1 served as positive control (lanes 2).
The ability of MB605 and the piperazine-like compounds to inhibit MET, Erk and Akt phosphorylation in the presence of NK1 was tested using mammalian Vero cells as described by Ferraris et al.[47] and further details are given in the ESI ^† section of the manuscript. […]
For MET, Erk1/2 and Akt phosphorylation assays, Vero cells were seeded at 2.1 × 10^5 cells we ll -1 (2 ml we ll -1) in 6-well plates and grown to 90% conf luence in 10% FCS/DMEM media and then switched to serum-free medium (to avoid any growth f actors present in the serum).
24 hours post starvation the cells were stimulated for 5 min at 37°C with each individual piperazine -like compounds as well as with NK1 (1 nM) pre-incubated with different concentrations of the piperazine- like compounds (100 mM, 10 mM, 1 mM and 100 μM) or MB605 (1 mM, 100 μM and 10 μM). Stimulations with either 0. 1% DMS O or 1 nM of NK1 […]
solution were used as a negative and a positive control, respectively. The cells were then washed in PBS buffer, lysed on ice f or 30 min and frozen at -80 °C until further analysis. For

[2] = target: T1, lysine-binding pocket of the kringle domain of NK1 (Homo sapiens, UniProt P14210); assay: Soaking into NK1 apo crystals, X-ray crystallography; conditions: soaked into NK1 apo crystals
T1 construct: made in house; host or cells: Pichia pastoris
Description: Next, three classes of piperazine-like sulphonated compounds containing piperazine ((H)EPPS and PIPES), morpholine (MES and MOPS), or cyclohexane (CHES and CAPS) rings were studied for their binding to NK1 (Table 1), alongside another five sulphonated compounds selected from a chemical fragment library (Table 2).
NK1 buffered in 150 mM NaCl, 50 mM Tris, pH 7.5 (apo-NK1 and all soaking experiments) was concentrated to ∼20 mg mL^–1 using a Vivaspin device with a 10 kDa cut-off membrane (Sartorius Biolab). Crystallisation was carried out in Linbro plates by the vapour diffusion hanging drop technique using a protein : precipitant ratio of 1 : 1 at 20 °C. Previously NK1 has been crystallised in 18% PEG 4000, 200 mM sodium acetate and 150 mM Tris pH 8.5 as precipitant.[19] Here final crystallisation conditions (19% PEG 4000, 200 mM sodium acetate and 150 mM Tris pH 7.5) were optimised around those to achieve high-resolution apo structure. Details of compound soaking, X-ray data collection and structure determination are given in the ESI ^† section of the manuscript. […]
For this, 1 M stock solutions were prepared in DMSO (fragments) or water (piperazine- like compounds) and the pH adjusted to a value within their buffering range with either HCl or NaOH. The seven piperazine- like compounds and their respective pH are: HEPES (pH 7.6), (H)EPPS (pH 7.4), PIPES (pH 7.0), MES (pH 5.8), MOPS (pH 7.2), CHES (pH 8.6) and CAPS (pH 9.7). Secondary stocks of the compounds at 50 mM were prepared in the […]
respective mother liquor and soaked for up to 48 hours.
MB605 was solubilised in 50% DMSO at 20 mM concentration (1% f inal DMSO concentration in the drop) in order to minimize adverse effects of DMSO on the protein crystal. 25% ethylene glycol was used as the cryoprotective agent.
X-ray data collection and processing
X-ray datasets were collected either at the European Synchrotron Radiation Facility (ESRF, Grenoble, France), the Diamond Light Source (DLS, Oxford, UK) or in-house using the X8 PROTEUM (Bruker AXS) at the Department of Biochemistry, University of Cambridge.
Datasets of at least 180° were collected. Raw data collected at synchrotrons were integrated, merged, scaled and reduced using DENZO and […].2 Raw data […]
collected in- house were integrated, merged, scaled and reduced using the PROTEUM 2 software package .3 The CCP4 suite of crystallographic programs (Collaborative

T1 sequence (P14210 32-210 isoform P14210-6 limits assumed): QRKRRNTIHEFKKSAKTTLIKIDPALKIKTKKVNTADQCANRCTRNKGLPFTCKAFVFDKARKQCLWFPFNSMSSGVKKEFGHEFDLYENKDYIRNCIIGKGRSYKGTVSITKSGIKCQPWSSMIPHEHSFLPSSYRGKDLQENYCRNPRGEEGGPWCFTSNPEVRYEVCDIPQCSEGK

binding in the lysine-binding pocket (crystal structure) [2]: binds in the lysine-binding pocket
SMILES: O=C(O)CCc1ccco1 [MB605]
Activity on NK1-induced MET, Erk 1/2 and Akt phosphorylation [1]: active

— PMC6054100, “Exploring the chemical space of the lysine-binding pocket of the first kringle domain of hepatocyte growth factor/scatter factor (HGF/SF) yields a new class of inhibitors of HGF/SF-MET binding” (Chemical Science, 2015)
